Read-outs that look alike come from different tables or passages of the source.
Experiments:
HeLa = assay: Binding of La-specific mAb to apoptotic human cancer cell lines (HeLa); details: 0.5 μM staurosporine, 20 μg/mL etoposide or 0.1 μg/mL vincristine, 3B9-FITC staining
Raji = assay: Binding of La-specific mAb to apoptotic human cancer cell lines (Raji); details: 2 μM staurosporine, 20 μg/mL etoposide or 0.1 μg/mL vincristine, 3B9-FITC staining
Jurkat = assay: Binding of La-specific mAb to apoptotic human cancer cell lines (Jurkat); details: 0.5 μM staurosporine, 20 μg/mL etoposide or 0.1 μg/mL vincristine, 3B9-FITC staining
apoptotic Jurkat cells = assay: MDC inhibition of protein crosslinking and 3B9 binding in cisplatin-treated Jurkat cells; type: cell-based, human; details: for IC50: Homo sapiens, read-out: concentration of MDC required to inhibit half of the binding of 3B9
Description: FIG. 18 depicts that La antigen is crosslinked during apoptosis. (A) Jurkat cells incubated in 20 μg/mL cisplatin were removed at specified time points and incubated for 10 min. in 1% Triton X-100 solution before 3B9 binding analysis. Data are presented as density plots of staining with 3B9 vs. 7-AAD. (B) Immunoblots of cell lysates of control and cisplatin-treated Jurkat cells were probed with 3B9 for expression of La (top panels) or actin as a loading control (bottom panels) at specified times. (C) Jurkat cells incubated in the absence or presence of increasing concentrations of cisplatin were labeled with cadaverine-biotin added at 100 μM for 48 h. Cells were stained with strepatavidin-Alexa488 and analyzed by flow cytomtery. Data shown are MFI±SEM (n=3). (D) Jurkat cells incubated in the absence or presence of 20 μg/mL cisplatin were incubated with increasing concentrations of MDC. Cells were analyzed at specified times (24 □, 48 ? and 72 h ▪) for sulforhodamine 101 staining. Inset summarizes the dependence of the protein cross-linking ratio on MDC concentration at 48 h (—) and 72 h ( . . . ) after cisplatin treatment of Jurkat cells. (E) Jurkat cells incubated with cisplatin in the absence or presence of increasing concentrations of MDC were stained with 3B9. 3B9-specific binding is presented as Net MFI±SEM (n=3). Inset summarizes the dependence of 3B9-specific binding on MDC concentration at 24 h (—), 48 h (— —) and 72 h ( . . . ) after cisplatin treatment of Jurkat cells. Data are representative of three identical and independent assays, which produced similar results.
Transglutaminase 2 (TG2)-mediated protein-protein crosslinking in apoptotic cells was investigated using a modification of a previously described method. Briefly, cells were resuspended at 1×10^6 cells/mL in PBS containing 1% Triton X-100, 0.2 μg/mL sulforhodamine 101 and 0.1 μM SytoxGreen. Samples were vortexed and incubated for 5 min. before analysis by flow cytometry where fluorescence from Sytox Green and sulforhodamine were detected using FL-1 and FL-3, respectively. The degree of crosslinking in apoptotic cells was calculated as the ratio of the MFI of sulforhodamine staining in apoptotic cells to the MFI in control cells (protein crosslinking ratio). In other experiments, cells were incubated with PBS or 1% Triton X-100 in PBS for 10 min. at RT with intermittent vortexing.
To test inhibition of protein crosslinking, cultured cells were incubated with increasing concentrations of the competitive TG2inhibitor, monodansylcadaverine (MDC). MDC was dissolved in DMSO at 25 mM and then diluted in culture media before it was added to cell cultures at the specified concentrations for the specified duration. […]

PANC-1 cells [1] = assay: MTS proliferation assay of PANC-1 cells; type: cell-based, human
Description: FIG. 50 depicts that gemcitabine and TSA synergise to reduce proliferation rates among PANC-1 cells in vitro. PANC-1 cells (2×10^4 cells) were seeded in flat bottom 96-well plates overnight using phenol-free RPMI-1640 medium containing 10% FCS (medium). A serial dilution of 2×10^4 cells was used to construct a standard curve for the MTS assay. Triplicate wells were incubated with increasing concentrations of TSA (nM) with or without the addition of increasing concentrations of gemcitabine. Three identical plates were incubated for 24, 48 or 72 h then medium was decanted and fresh medium (100 μL) containing 20 μL MTS/PMS substrate was added to all wells. Assays were performed according to the manufacturer's instructions. The change in the absorbance reading over time was calculated for each condition in units of change per 12 h (upper panel), which was converted to units of cell number change per 12 h (lower panel) using a standard curve of the absorbance reading […] (r^2=0.99).

PANC-1 cells [2] = assay: Cell death and 3B9 binding of PANC-1 cells treated with gemcitabine and TSA in vitro; type: cell-based, human; details: compared with control or single agent
Description: FIG. 15 depicts that 3B9 binding to dead PANC-1 cells is augmented after combination treatment with gemcitabine and TSA produced additive cytotoxicity and DNA-damaging effects. PANC-1 cells were incubated with increasing concentrations of gemcitabine in the absence (clear columns) or presence of 100 ng/mL (hatched columns) or 200 ng/mL (filled columns) of TSA. Analysis was done for viability using 7-AAD (A), 3B9-specific binding (B) and DNA damage using γH2AX staining (C). Data are presented as mean±SEM from three independent experiments. Photomicrographs show PANC-1 cells treated with gemcitabine and TSA (+) or not (−), which were stained with γH2AX-specific mAb and 7-AAD (D).
Apoptosis or cell death was induced by adding cytotoxic drugs to culture media at the specified concentrations. […] Control (untreated) cells had ≧90% viability determined by PI or trypan blue staining (data not shown). […]
Indirect immunofluorescence staining was performed using purified mouse antibodies at 5 μg/mL for 30 min. at room temperature (RT) in PBS followed by Alexa488-conjugated anti-mouse IgG at 2 μg/mL for 30 min. at RT in PBS. […] Cells were washed then incubated (30 min. at RT) with 2 μg/mL of FITC-conjugated anti-rabbit IgG antibody, which was detected using the FL-1 channel. […] Flow cytometry data were analyzed using WinMDI v2.8 (Scripps Research Institute, La Jolla, Calif.). […]

U2OS = assay: Binding of La-specific mAb to apoptotic human cancer cell lines (U2OS); type: cell-based; details: 0.5 μM staurosporine, 20 μg/mL etoposide, 3B9-FITC staining
Description: Direct immunofluorescence staining was performed using 1-2×10^5 cells at 10^6 cells/mL for 30 min at room temperature in PBS containing 0.1% BSA and 5 μg/mL of FITC-conjugated mAb. […] Cell viability was assessed by the exclusion of PI detected using the FL-2 (585-nm filter) or the exclusion of 7-AAD detected using the FL-3 (>650 nm filter).

Question: What does the source list for `CC[C@]1(O)C[C@H]2CN(CCc3c([nH]c4ccccc34)[C@@](C(=O)OC)(c3cc4c(cc3OC)N(C=O)[C@H]3[C@@](O)(C(=O)OC)[C@H](OC(C)=O)[C@]5(CC)C=CCN6CC[C@]43[C@@H]65)C2)C1` [Vincristine, vincristine]?
Answer: percentage of PI+ and 3B9+ events after subtraction of control (PI+ and Sal5+) events (HeLa): 18.6%; percentage of PI+ and 3B9+ events after subtraction of control (PI+ and Sal5+) events (Raji): 9.8%; percentage of PI+ and 3B9+ events after subtraction of control (PI+ and Sal5+) events (Jurkat): 12.1%

Question: Which results are given for `CN(C)c1cccc2c(S(=O)(=O)NCCCCCN)cccc12` [MDC, monodansylcadaverine]?
Answer: IC50 (apoptotic Jurkat cells; 24 h after cisplatin treatment of Jurkat cells): 260 ± 1 µM; IC50 (apoptotic Jurkat cells; 48 h after cisplatin treatment of Jurkat cells): 110 ± 1 µM; IC50 (apoptotic Jurkat cells; 72 h after cisplatin treatment of Jurkat cells): 150 ± 1 µM; effect on protein crosslinking (sulforhodamine crosslinking ratio) (apoptotic Jurkat cells; cisplatin-treated Jurkat cells): dose-dependent inhibitory effect

Question: Which “proliferation of PANC-1 cells” value (PANC-1 cells [1]; TSA alone) does the source give for `CC(/C=C/C(=O)NO)=C\[C@@H](C)C(=O)c1ccc(N(C)C)cc1` [TSA, trichostatin A] here?
Answer: inhibited proliferation

Question: What about the “3B9-specific binding to PANC-1 cells” value (PANC-1 cells [2]) of the same molecule?
Answer: did not alter 3B9 binding

Question: For `Nc1ccn([C@@H]2O[C@H](CO)[C@@H](O)C2(F)F)c(=O)n1` [gemcitabine], which “proliferation of PANC-1 cells” value (PANC-1 cells [1]; gemcitabine added at a TSA concentration of 50 nM) is on record?
Answer: completely inhibited

Question: What about the “numbers of PANC-1 cells in the cultures” value (PANC-1 cells [1]; gemcitabine added at a TSA concentration of 200 nM) of the same molecule?
Answer: significantly reduced the numbers

Question: For `CN[C@@H]1C[C@H]2O[C@@](C)([C@@H]1OC)n1c3ccccc3c3c4c(c5c6ccccc6n2c5c31)C(=O)NC4` [Staurosporine, staurosporine], which “percentage of PI+ and 3B9+ events after subtraction of control (PI+ and Sal5+) events” value (shortened to “percentage of PI+ and 3B9+ events”) (U2OS) is on record?
Answer: 65.9%

Question: What about the “percentage of PI+ and 3B9+ events” value (HeLa) of the same molecule?
Answer: 62.5%

Question: What about the “percentage of PI+ and 3B9+ events” value (Raji) of the same molecule?
Answer: 28.8%

Question: What about the “percentage of PI+ and 3B9+ events” value (Jurkat) of the same molecule?
Answer: 56.1%

Question: Which “percentage of PI+ and 3B9+ events” value (U2OS) does the source give for `COc1cc([C@@H]2c3cc4c(cc3[C@@H](O[C@@H]3O[C@@H]5CO[C@@H](C)O[C@H]5[C@H](O)[C@H]3O)[C@H]3COC(=O)[C@H]23)OCO4)cc(OC)c1O` [Etoposide, etoposide] here?
Answer: 28.0%

Question: And the “percentage of PI+ and 3B9+ events” value (HeLa)?
Answer: 36.1%

Question: What about the “percentage of PI+ and 3B9+ events” value (Raji) of the same molecule?
Answer: 21.3%

Question: What about the “percentage of PI+ and 3B9+ events” value (Jurkat) of the same molecule?
Answer: 22.6%
